This assay concerns the target T1, hROMK (hKir1.1) (Homo sapiens, UniProt P48048).
T1 construct: expressed in transfected cells
T1 sequence (P48048 1-391): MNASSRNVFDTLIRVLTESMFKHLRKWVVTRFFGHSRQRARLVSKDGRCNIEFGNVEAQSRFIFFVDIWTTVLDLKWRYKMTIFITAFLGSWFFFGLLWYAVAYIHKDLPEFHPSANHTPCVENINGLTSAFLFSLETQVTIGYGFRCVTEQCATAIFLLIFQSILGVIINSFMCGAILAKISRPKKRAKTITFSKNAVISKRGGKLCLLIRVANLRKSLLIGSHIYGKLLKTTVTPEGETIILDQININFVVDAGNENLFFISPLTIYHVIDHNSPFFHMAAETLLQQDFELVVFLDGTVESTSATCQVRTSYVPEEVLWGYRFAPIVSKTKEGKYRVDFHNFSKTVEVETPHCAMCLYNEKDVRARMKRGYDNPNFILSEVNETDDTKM
Put plainly: Thallium Flux Assay (ROMK channel functional thallium flux assay). As to conditions: HEK293 cells stably expressing hROMK (hKir1.1); FluxOR thallium flux, FLIPR-Tetra, 30 min compound incubation; read-out: ROMK TI IC50. Type of assay: cell-based. Put shortly:
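HEK293 cells stably expressing hROMK (hKir1.1) loaded with FluxOR dye 90 min at ambient temperature, then compound 30 min before thallium/potassium stimulant (final 3 mM Tl/0.3 mM K). ROMK-sensitive flux defined by 3 μM standard inhibitor; data as % fluorescence change.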

This is an account of results in US20170275298A1, “INHIBITORS OF THE RENAL OUTER MEDULLARY POTASSIUM CHANNEL” (Merck Sharp & Dohme Corp., priority 2014, published 2017).

By IC50 is commonly meant the concentration at which inhibition is half-maximal.

Structures are written as SMILES.

As to `COc1ncc(N2CCC3(CCN(C[C@H](O)c4ccc5c(c4C)COC5=O)CC3)C2=O)cn1` [Example 40, (R)-8-(2-hydroxy-2-(4-methyl-1-oxo-1,3-dihydroisobenzofuran-5-yl)ethyl)-2-(2-methoxypyrimidin-5-yl)-2,8-diazaspiro[4.5]decan-1-one], the IC50 stood at 142 nM.

For the molecule `COc1nccc(N2CCC3(CCN(C[C@H](O)c4ccc5c(c4C)COC5=O)CC3)C2=O)n1` [Example 80, (R)-8-(2-hydroxy-2-(4-methyl-1-oxo-1,3-dihydroisobenzofuran-5-yl)ethyl)-2-(2-methoxypyrimidin-4-yl)-2,8-diazaspiro[4.5]decan-1-one], the IC50 was found to be 14.3 nM.

As to `COc1nsc(N2CCC3(CCN(C[C@H](O)c4ccc5c(c4C)COC5=O)CC3)C2)n1` [Example 13, (R)-5-(1-hydroxy-2-(2-(3-methoxy-1,2,4-thiadiazol-5-yl)-2,8-diazaspiro[4.5]decan-8-yl)ethyl)-4-methylisobenzofuran-1(3H)-one], the IC50 was 336 nM.

Consider `Cc1c([C@@H](O)CN2CCC3(CC2)CCN(c2ccc(=O)n(C)n2)CC3)ccc2c1COC2=O` [Example 113, (R)-6-(9-(2-hydroxy-2-(4-methyl-1-oxo-1,3-dihydroisobenzofuran-5-yl)ethyl)-3,9-diazaspiro[5.5]undecan-3-yl)-2-methylpyridazin-3(2H)-one], for which the half-inhibitory concentration (IC50) was determined as 616 nM.

As to `COc1cc(N2CCC3(CCN(C[C@H](O)c4ccc5c(c4C)COC5=O)CC3)C2=O)cnn1` [Example 50, (R)-8-(2-hydroxy-2-(4-methyl-1-oxo-1,3-dihydroisobenzofuran-5-yl)ethyl)-2-(6-methoxypyridazin-4-yl)-2,8-diazaspiro[4.5]decan-1-one], the half-inhibitory concentration (IC50) turned out to be 480 nM.

Consider `Cc1nccnc1N1CCC2(CCN(C[C@H](O)c3ccc4c(c3C)COC4=O)CC2)CC1` [Example 128, (R)-5-(1-hydroxy-2-(9-(3-methylpyrazin-2-yl)-3,9-diazaspiro[5.5]undecan-3-yl)ethyl)-4-methylisobenzofuran-1(3H)-one], for which the IC50 stood at 581 nM.

Turning to `Cc1cc(N2CCC3(CCN(C[C@H](O)c4ccc5c(c4C)COC5=O)CC3)CC2)nnc1Cl` [Example 130, (R)-5-(2-(9-(6-chloro-5-methylpyridazin-3-yl)-3,9-diazaspiro[5.5]undecan-3-yl)-1-hydroxyethyl)-4-methylisobenzofuran-1(3H)-one], the 50% inhibitory concentration (IC50) was 553 nM.

On to `Cc1c([C@@H](O)CN2CCC3(CC2)CCN(c2cnccn2)C3=O)ccc2c1COC2=O` [Example 25, (R)-8-(2-hydroxy-2-(4-methyl-1-oxo-1,3-dihydroisobenzofuran-5-yl)ethyl)-2-(pyrazin-2-yl)-2,8-diazaspiro[4.5]decan-1-one], for which the IC50 turned out to be 437 nM.

Take `Cc1nc(-n2cnnn2)ccc1[C@@H](O)CN1CCC2(CC1)CN(c1ccc(=O)n(C)n1)CCO2` [Example 18, (R)-6-(9-(2-hydroxy-2-(2-methyl-6-(1H-tetrazol-1-yl)pyridin-3-yl)ethyl)-1-oxa-4,9-diazaspiro[5.5]undecan-4-yl)-2-methylpyridazin-3(2H)-one]: the half-inhibitory concentration (IC50) was 376 nM.

As for `Cc1c([C@@H](O)CN2CCC3(CC2)CCN(c2nc(Cl)ns2)C3)ccc2c1COC2=O` [Example 5, (R)-5-(2-(2-(3-chloro-1,2,4-thiadiazol-5-yl)-2,8-diazaspiro[4.5]decan-8-yl)-1-hydroxyethyl)-4-methylisobenzofuran-1(3H)-one], the half-inhibitory concentration (IC50) stood at 64.8 nM.

As to `Cc1nsc(N2CCC3(CCN(C[C@H](O)c4ccc5c(c4C)COC5=O)CC3)C2)n1` [Example 1, 5-{(1R)-1-hydroxy-2-[2-(3-methyl-1,2,4-thiadiazol-5-yl)-2,8-diazaspiro[4.5]dec-8-yl]ethyl}-4-methyl-2-benzofuran-1(3H)-one], the IC50 is 251 nM.

`Cc1c([C@@H](O)CN2CCC3(CC2)CCN(c2cc(F)ncn2)CC3)ccc2c1COC2=O` [Example 117, (R)-5-(2-(9-(6-fluoropyrimidin-4-yl)-3,9-diazaspiro[5.5]undecan-3-yl)-1-hydroxyethyl)-4-methylisobenzofuran-1(3H)-one]: the 50% inhibitory concentration (IC50) was found to be 403 nM.

As for `Cc1nsc(N2CCC3(CCN(C[C@H](O)c4ccc5c(c4C)COC5=O)CC3)C2=O)n1` [Example 71, (R)-8-(2-hydroxy-2-(4-methyl-1-oxo-1,3-dihydroisobenzofuran-5-yl)ethyl)-2-(3-methyl-1,2,4-thiadiazol-5-yl)-2,8-diazaspiro[4.5]decan-1-one], the concentration for half-maximal inhibition (IC50) was found to be 37.1 nM.

Turning to `Cc1cnsc1N1CCC2(CCN(C[C@H](O)c3ccc4c(c3C)COC4=O)CC2)C1=O` [Example 104, (R)-8-(2-hydroxy-2-(4-methyl-1-oxo-1,3-dihydroisobenzofuran-5-yl)ethyl)-2-(4-methylisothiazol-5-yl)-2,8-diazaspiro[4.5]decan-1-one], the IC50 turned out to be 65.5 nM.

Consider `Cc1c([C@@H](O)CN2CCC3(CC2)CC(=O)N(c2ccnc(Cl)n2)C3)ccc2c1COC2=O` [Example 91, (R)-2-(2-chloropyrimidin-4-yl)-8-(2-hydroxy-2-(4-methyl-1-oxo-1,3-dihydroisobenzofuran-5-yl)ethyl)-2,8-diazaspiro[4.5]decan-3-one], for which the concentration for half-maximal inhibition (IC50) was 775 nM.

In the case of `[2H]C([2H])(N1CCC2(CCN(c3ccc(=O)n(C)n3)C2=O)CC1)[C@]([2H])(O)c1ccc2c(c1C)COC2=O` (single isomer, unassigned) [Example 58], the IC50 stood at 36 nM.

Consider `Cc1c([C@@H](O)CN2CCC3(CC2)CCN(c2cncc(F)c2)CC3)ccc2c1COC2=O` [Example 111, 9-(5-fluoropyridin-3-yl)-3-[(2R)-2-hydroxy-2-(4-methyl-1-oxo-1,3-dihydro-2-benzofuran-5-yl)ethyl]-9-aza-3-azoniaspiro[5.5]undecane], for which the IC50 turned out to be 185 nM.

On to `Cn1nc(N2CCC3(CCN(CCc4ccc(-n5cnnn5)nc4)CC3)C2=O)ccc1=O` [Example 22, 8-(2-(6-(1H-tetrazol-1-yl)pyridin-3-yl)ethyl)-2-(1-methyl-6-oxo-1,6-dihydropyridazin-3-yl)-2,8-diazaspiro[4.5]decan-1-one], for which the 50% inhibitory concentration (IC50) was 420 nM.

`Cc1c(CCN2CCC3(CC2)CCN(c2ccc(=O)n(C)n2)C3=O)ccc2c1COC2=O` [Example 20, 8-(2-(4-methyl-1-oxo-1,3-dihydroisobenzofuran-5-yl)ethyl)-2-(1-methyl-6-oxo-1,6-dihydropyridazin-3-yl)-2,8-diazaspiro[4.5]decan-1-one]: the half-inhibitory concentration (IC50) came to 51.2 nM.

Consider `Cc1c([C@@H](O)CN2CCC3(CCCN(c4ccncc4)C3=O)CC2)ccc2c1COC2=O` [Example 85, (R)-9-(2-hydroxy-2-(4-methyl-1-oxo-1,3-dihydroisobenzofuran-5-yl)ethyl)-2-(pyridin-4-yl)-2,9-diazaspiro[5.5]undecan-1-one], for which the IC50 turned out to be 801 nM.

As to `Cc1cc(N2CCC3(CCN(C[C@H](O)c4ccc5c(c4C)COC5=O)CC3)C2=O)ccn1` [Example 88, (R)-8-(2-hydroxy-2-(4-methyl-1-oxo-1,3-dihydroisobenzofuran-5-yl)ethyl)-2-(2-methylpyridin-4-yl)-2,8-diazaspiro[4.5]decan-1-one], the IC50 turned out to be 130 nM.

On to `Cc1c([C@@H](O)CN2CCC3(CC2)CCN(c2sncc2Br)C3=O)ccc2c1COC2=O` [Example 103, (R)-2-(4-bromoisothiazol-5-yl)-8-(2-hydroxy-2-(4-methyl-1-oxo-1,3-dihydroisobenzofuran-5-yl)ethyl)-2,8-diazaspiro[4.5]decan-1-one], for which the concentration for half-maximal inhibition (IC50) is 61.4 nM.
